Each structure is given as a SMILES string.

One test concerns A172 glioblastoma cells. Briefly: A172 cell growth inhibition assay (CellTiter-Glo). Format: cell-based. To be noted: Homo sapiens, A 172, 48-72 hours treatment, CellTiter-Glo luminescence, test range 1-30 μM. The protocol:
Compounds were also assayed in an A172 cell growth inhibition assay as follows. A172 glioblastoma cells were cultured in Dulbecco's modified Eagle's medium (DMEM) supplemented with 10% fetal bovine serum and 1% Penicillin-streptomycin. Incubation was performed at 37° C. and 5% CO2.
A172 cells were seeded at 3000-3500 cells/90 ul growth medium per well on 96-well tissue culture plates. Cells were incubated overnight to allow them to recover and reattach. Next day cells were treated with tested compounds and incubated for 48-72 hours.
Cell Proliferation assays in triplicate were performed at each concentration. Compounds test range was 1-30 μM (0, 5, 10, 15, 20, 25, and 30). The compounds were dissolved in DMSO. A series of dilutions were made in 1% DMSO in growth medium so that the final concentration of DMSO is 0.1% in all of treatments.
After treatment, cells were allowed to equilibrate at room temperature for ½ to one hour. Cell proliferation was measured by Luminescence quantification using Promega CellTiter-Glo Luminescent Cell Viability Assay. To perform the assay, 100 μl of Celltiter-Glo substrate was added to each well, plates were shake for 2 minutes and allowed to equilibrate for 10 minutes at room temperature. Luminescence intensity was measured using the Spectramax i3x plate reader.
The Luminescence intensity data were analyzed using the computer software Graphpad Prism. In the absence of the compound, the luminescence intensity (Lr) in each data set was defined as 100% cell viability. The percent cell in the presence of each compound was calculated according to the following equation: […], where L=the luminescence intensity in the presence of the compound.
The values of % cell versus a series of compound concentrations (0, 5, 10, 15, 20, 25, and 30 μM) were then plotted using nonlinear regression analysis of Sigmoidal dose-response curve. IC50 values were determined by the concentration causing a half-maximal percent activity.
(Cellular ATP, detected with luciferase, serves as a proxy for viable cell number.)
What is called IC50 is the concentration that gives 50% inhibition. Turning to `O=S(=O)(Nc1ccc(OC(F)(F)F)cc1)N1CCCC(C(c2ccc(F)cc2)c2ccc(F)cc2)C1` (centres unmarked) [Example 1a, 3-(bis(4-fluorophenyl)methyl)-N-(4-(trifluoromethoxy)phenyl)piperidine-1-sulfonamide], the half-maximal inhibitory concentration (IC50) came out at 12.1 µM.

On to `O=S(=O)(Nc1ccccc1)N1CCCC(C(c2ccc(F)cc2)c2ccc(F)cc2)C1` (centres unmarked) [Example 2, 3-(bis(4-fluorophenyl)methyl)-N-phenylpiperidine-1-sulfonamide], for which half-maximal inhibition (IC50) required 23 µM.

In turn, `O=S(=O)(Nc1ccc(C(F)(F)F)cc1)N1CCCC(C(c2ccc(F)cc2)c2ccc(F)cc2)C1` (centres unmarked) [Example 4, 3-(bis(4-fluorophenyl)methyl)-N-(4-(trifluoromethyl)phenyl)piperidine-1-sulfonamide] showed an IC50 of 17.1 µM.

In turn, `O=S(=O)(Nc1ccc(OC(F)(F)F)cc1)N1CCOC(C(c2ccc(F)cc2)c2ccc(F)cc2)C1` (centres unmarked) [Example 19, 2-(bis(4-fluorophenyl)methyl)-N-(4-(trifluoromethoxy)phenyl)morpholine-4-sulfonamide] showed an IC50 of 18.2 µM.

Compound `O=S(=O)(Nc1ccc(C(F)(F)F)cc1)N1CCOC(C(c2ccc(F)cc2)c2ccc(F)cc2)C1` (centres unmarked) [Example 22] showed an IC50 of 26 µM.

`O=S(=O)(Nc1ccc(Cl)cc1)N1CCOC(C(c2ccc(F)cc2)c2ccc(F)cc2)C1` (centres unmarked) [Example 25] came in with a 50% inhibitory concentration (IC50) of 19.4 µM.

In turn, `O=S(=O)(Nc1cccc(Cl)c1)N1CCOC(C(c2ccc(F)cc2)c2ccc(F)cc2)C1` (centres unmarked) [Example 26] yielded a half-inhibitory concentration (IC50) of 28.2 µM.

`O=S(=O)(Nc1ccc(OC(F)(F)F)cc1)N1CCCC(C2c3ccccc3CCc3ccccc32)C1` (centres unmarked) [Example 37] came in with an IC50 of 11 µM.

As to `O=S(=O)(Nc1ccc(C(F)(F)F)cc1)N1CCCC(C2c3ccccc3CCc3ccccc32)C1` (centres unmarked) [Example 40], the IC50 was found to be 15.8 µM.

Compound `O=[N+]([O-])c1ccc(NS(=O)(=O)N2CCCC(C3c4ccccc4CCc4ccccc43)C2)cc1` (centres unmarked) [Example 42] came in with an IC50 of 51 µM.

As to `O=S(=O)(Nc1ccc(OC(F)(F)F)cc1)N1CCCC(C2c3ccc(F)cc3CCc3cc(F)ccc32)C1` (centres unmarked) [Example 71], it took 13 µM to reach half-maximal inhibition (IC50).

Regarding `O=S(=O)(Nc1ccc(Cl)c(Cl)c1)N1CCOC(C(c2ccc(F)cc2)c2ccc(F)cc2)C1` (centres unmarked) [Example 93], the midpoint of inhibition, the IC50, lay at 45 µM.

In the case of `O=S(=O)(Nc1cc(Cl)cc(Cl)c1)N1CCOC(C(c2ccc(F)cc2)c2ccc(F)cc2)C1` (centres unmarked) [Example 94], the midpoint of inhibition, the IC50, lay at 23.2 µM.

As to `O=S(=O)(NCc1ccc(F)cc1)N1CCCC(C2c3ccccc3CCc3ccccc32)C1` (centres unmarked) [Example 96], the half-inhibitory concentration (IC50) worked out at 16.1 µM.

Take `O=S(=O)(NCc1ccc(F)cc1)N1CCOC(C(c2ccc(F)cc2)c2ccc(F)cc2)C1` (centres unmarked) [Example 97]: 27.2 µM corresponded to half-maximal inhibition (IC50).

`O=S(=O)(NCc1ccc(C(F)(F)F)cc1)N1CCCC(C2c3ccccc3CCc3ccccc32)C1` (centres unmarked) [Example 98] registered a concentration for half-maximal inhibition (IC50) of 10.4 µM.

`O=S(=O)(Nc1ncc(C(F)(F)F)cn1)N1CCCC(C2c3ccccc3CCc3ccccc32)C1` (centres unmarked) [Example 99]: the IC50 worked out at 25.3 µM.

Consider `O=S(=O)(Nc1ccc(Cl)c(Cl)c1)N1CCCC(C(c2ccc(F)cc2)c2ccc(F)cc2)C1` (centres unmarked) [Example 100], for which the IC50 was 16.2 µM.

As to `O=S(=O)(Nc1cccc(C(F)(F)F)c1)N1CCCC(C(c2ccc(F)cc2)c2ccc(F)cc2)C1` (centres unmarked) [Example 101], it took 22.1 µM to reach half-maximal inhibition (IC50).

`O=S(=O)(Nc1cccc(C(F)(F)F)c1)N1CCOC(C(c2ccc(F)cc2)c2ccc(F)cc2)C1` (centres unmarked) [Example 102]: 20.6 µM corresponded to half-maximal inhibition (IC50).

Turning to `CC(C)(C)OC(=O)Nc1ccc(NS(=O)(=O)N2CCCC(C(c3ccc(F)cc3)c3ccc(F)cc3)C2)cc1` (centres unmarked) [Example 103], the IC50 worked out at 10.3 µM.

The compound `O=S(=O)(Nc1ccc(OC(F)(F)F)cc1)N1CCCC(=C(c2ccc(F)cc2)c2ccc(F)cc2)C1` [Example 104] gave a concentration for half-maximal inhibition (IC50) of 14.8 µM.

`O=S(=O)(Nc1ccc(OC(F)(F)F)cc1)N1CCCC(=C(c2ccccc2)c2ccccc2)C1` [Example 105] yielded a 50% inhibitory concentration (IC50) of 20.3 µM.

With `O=S(=O)(Nc1ccc2c(c1)OC(F)(F)O2)N1CCCC(C2c3ccccc3CCc3ccccc32)C1` (centres unmarked) [Example 106], the midpoint of inhibition, the IC50, lay at 12.8 µM.

`O=S(=O)(Nc1ccc(Cl)cc1)N1CCCC(=C(c2ccc(F)cc2)c2ccc(F)cc2)C1` [Example 108] gave an IC50 of 16.1 µM.

`O=S(=O)(Nc1ccc(C(F)(F)F)cc1)N1CCCC(=C(c2ccc(F)cc2)c2ccc(F)cc2)C1` [Example 109] came in with a concentration for half-maximal inhibition (IC50) of 19.2 µM.

`O=S(=O)(Nc1ccccc1)N1CCCC(=C(c2ccc(F)cc2)c2ccc(F)cc2)C1` [Example 110]: the IC50 was determined as 25 µM.

For `O=S(=O)(Nc1cccc(C(F)(F)F)c1)N1CCCC(=C(c2ccc(F)cc2)c2ccc(F)cc2)C1` [Example 111], the IC50 stood at 30 µM.

`O=S(=O)(Nc1cccc(OC(F)(F)F)c1)N1CCCC(=C(c2ccc(F)cc2)c2ccc(F)cc2)C1` [Example 112] came in with a half-maximal inhibitory concentration (IC50) of 24 µM.

On to `O=S(=O)(Nc1cccc(OC(F)(F)F)c1)N1CCCC(C2c3ccccc3CCc3ccccc32)C1` (centres unmarked) [Example 113], for which the half-maximal inhibitory concentration (IC50) was found to be 10.8 µM.

In a further test the test system is A549 cells. The test is described as follows: A549 cell growth inhibition assay (alamarBlue). As to conditions: Homo sapiens, 72 hours treatment, alamarBlue fluorescence. Format: cell-based. On the procedure: Example compounds 1a, 2, 4 and 6 were assayed in an A549 cell growth inhibition assay as follows. A549 cells were cultured in DMEM medium with supplement of 10% FBS and 1% Pen-strep. Assay conditions: to perform the proliferation assay, A549 cells were seeded at 5000 cells/90 μl growth medium/well on 96-well black clear-bottom tissue culture plate. Cells were incubated at 37° C. and 5% CO2 overnight to allow them to recover and reattach. Next day cells were treated with tested compounds for 72 hours. After treatment, cell proliferation was measured by Fluorescent quantitation of alamarBlue reagent. The alamarBlue assay incorporates a fluorometric/colorimetric growth indicator based on detection of metabolic activity. Specifically, resazurin, the active ingredient of alamarBlue reagent, is blue in color and virtually non-fluorescent. Upon entering cells, resazurin is reduced to resorufin, a compound that is red in color and highly fluorescent. Continued cell growth maintains a reduced environment, therefore increasing the overall fluorescence and color of the media surrounding cells. Our experiment has shown that the fluorescence intensity of alamarBlue reagent was directly proportional to cell number. To perform the alamarBlue assay, 10 μl of alamarBlue reagent was added to each well and the plate was incubated at 37° C. for an additional 1-4 hours. Fluorescence intensity was measured at an excitation of 530 nm and an emission of 590 nm using a BioTek Synergy™ 2 microplate reader.
Data analysis. Cell proliferation assays in triplicate were performed at each concentration. The fluorescent intensity data were analyzed using the computer software, Graphpad Prism. In the absence of the compound, the fluorescent intensity (Ft) in each data set was defined as 100%. In the absence of cells, the fluorescent intensity (Fb) in each data set was defined as 0%. The percent cell in the presence of each compound was calculated according to the following equation: % cell=(F-Fb)/(Ft-Fb), where F=the fluorescent intensity in the presence of the compound, Fb=the fluorescent intensity in the absence of cells, and Ft=the fluorescent intensity in the absence of the compound. The values of % cell versus a series of compound concentrations were then plotted using non-linear regression analysis of Sigmoidal dose-response curve generated with the equation Y=B+(T-B)/1+10^((LogEC50-X)×Hill Slope), where Y=percent cell, B=minimum percent cell, T=maximum percent cell, X=logarithm of compound and Hill Slope=slope factor or Hill coefficient. The IC50 value was determined by the concentration causing a half-maximal percent activity.
For the compound `COc1cccc2c1C(=O)c1c(O)c3c(c(O)c1C2=O)C[C@@](O)(C(=O)CO)C[C@@H]3O[C@H]1C[C@H](N)[C@H](O)[C@H](C)O1` [Doxorubicin, reference compound], the IC50 worked out at 0.34 µM.

With `O=S(=O)(Nc1ccc(OC(F)(F)F)cc1)N1CCCC(C(c2ccc(F)cc2)c2ccc(F)cc2)C1` (centres unmarked) [Example 1a, 3-(bis(4-fluorophenyl)methyl)-N-(4-(trifluoromethoxy)phenyl)piperidine-1-sulfonamide], the IC50 was 8.27 µM.

Turning to `O=S(=O)(Nc1ccccc1)N1CCCC(C(c2ccc(F)cc2)c2ccc(F)cc2)C1` (centres unmarked) [Example 2, 3-(bis(4-fluorophenyl)methyl)-N-phenylpiperidine-1-sulfonamide], the half-inhibitory concentration (IC50) was found to be 22.9 µM.

With `O=S(=O)(Nc1ccc(C(F)(F)F)cc1)N1CCCC(C(c2ccc(F)cc2)c2ccc(F)cc2)C1` (centres unmarked) [Example 4, 3-(bis(4-fluorophenyl)methyl)-N-(4-(trifluoromethyl)phenyl)piperidine-1-sulfonamide], the half-inhibitory concentration (IC50) came to 9.61 µM.

For the compound `O=S(=O)(Nc1ccc(Cl)cc1)N1CCCC(C(c2ccc(F)cc2)c2ccc(F)cc2)C1` (centres unmarked) [Example 6, 3-(bis(4-fluorophenyl)methyl)-N-(4-chlorophenyl)piperidine-1-sulfonamide], the 50% inhibitory concentration (IC50) stood at 12.8 µM.

These data come from US20250382270A1, “3-DIARYLMETHYLENES AND USES THEREOF” (Atux Iskay LLC, priority 2020, published 2025).
